Results: patent US12440492B2, “Pharmaceutical compositions comprising AKT protein kinase inhibitors” (Genentech, Inc., priority 2016, dated 2025)
Structures can show the parent of a compound that is named as a salt.

Experiments:
Assay type in all cases: physicochemical
[1] = Particle size distribution (d10, d50, d90) by laser diffraction; settings: for Particle size d10 / Particle size d50 / Particle size d90: spray dried amorphous ipatasertib monohydrochloride powder
Description: FIG. 6 illustrates particle size distribution of the material of Example 6C (Batch HQ00003) spray dried with two-feed nozzle as obtained by laser diffraction A bimodal particle size distribution is obvious. FIG. 9 illustrates particle size distribution of spray dried material with rotary wheel nozzle, i.e. of the material of batch BS1506SA03 of Example 13 (Table 20) obtained using a Malvern Mastersizer 2000 equipped with Hydro 2000S wet sample dispersion unit (Malvern Instruments Ltd, Malvern/UK). A monomodal particle size distribution is obvious. The terms “d50 value” (sometimes also referred to as “d(0.5)-value”) and “mass-median diameter” (or MMD) can be used interchangeably and denote the average particle size by mass, i.e. the average equivalent diameter of a particle, which is defined as the diameter where 50% (w) of the particles of the ensemble have a larger equivalent spherical diameter, and the other 50% (w) have a smaller equivalent spherical diameter. In analogy, the term “d10-value” denotes the particle diameter wherein 10% (w) of the particles of the ensemble have a smaller equivalent spherical diameter. In analogy, the term “d90-value” denotes the particle diameter wherein 90% (w) of the particles of the ensemble have a smaller equivalent spherical diameter.

[2] = Solid state by X-ray powder diffraction; settings: * indicates absence of crystalline API; monohydrochloride
Description: Bragg's law describes the diffraction of crystalline material with the equation “2d·sin(theta)=n·lambda”, wherein “d” denotes perpendicular distance (in Angstroms) between pairs of adjacent planes in a crystal (“d-spacing”), “theta” denotes the Bragg angle, “lambda” denotes the wavelength and “n” is an integer. When Bragg's law is fulfilled, the reflected beams are in phase and interfere constructively so that Bragg diffraction peaks are observed in the X-ray diffraction pattern. At angles of incidence other than the Bragg angle, reflected beams are out of phase and destructive interference or cancellation occurs. […] The XRPD pattern of an amorphous material is further characterized by one or more amorphous halos.
The term “XRPD” denotes the analytical method of X-Ray Powder Diffraction. The repeatability of the angular values is in the range of 2Theta±0.2°, more particularly in the range of 2Theta±0.1°. The term “approximately” given in combination with an angular value denotes the variance which is in the range of 2Theta±0.2°, particularly in the range of 2Theta±0.1°. The relative XRPD peak intensity is dependent upon many factors such as structure factor, temperature factor, crystallinity, polarization factor, multiplicity, and Lorentz factor. Relative intensities may vary considerably from one measurement to another due to preferred orientation effects. According to USP 941 (US Pharmacopoeia, 37th Edition, General Chapter 941), relative intensities between two samples of the same material may vary considerably due to “preferred orientation” effects. Anisotropic materials adopting preferred orientation will lead to anisotropic distribution of properties such as modulus, strength, ductility, toughness, electrical conductivity, thermal expansion, etc., as described e.g. in Kocks U. F. et al. (Texture and Anisotropy: Preferred Orientations in Polycrystals and Their Effect on Materials Properties, Cambridge University Press, 2000). In XRPD but also Raman spectroscopy, preferred orientations cause a change in the intensity distribution. Preferred orientation effects are particularly pronounced with crystalline APIs of relatively large particle size.

[3] = Glass transition; settings: monohydrochloride
[4] = Shear cell testing with Ring Shear Tester RST-XS; settings: Pre-shear stress 1000 PA, 30 mL shear cell; monohydrochloride
Description: Similar to the classification used by Jenike (Dietmar Schulze, Pulver und Schüttgüter, 2009 Springer Verlag Berlin/DE), one can define flow behaviour based on the flow function constant (ffc) as follows:
The larger the flow function constant ffc, i.e., the smaller the ratio of the unconfined yield strength (σc) to the consolidation stress (σ1), the better a bulk solid's flow.

[5] = Bulk density, tapped density and Carr index; settings: spray dried amorphous ipatasertib monohydrochloride powder; monohydrochloride

| Structure (SMILES) | Particle size d10 [1] | Particle size d50 [1] | Particle size d90 [1] | Solid state / Polymorphy (X-Ray, XRPD) [2] | Glass Transition tg [3] | Consolidation stress (σ1) [4] | Flow Function Constant (ffc) [4] | Bulk density [5] | Tapped density [5] | particle size distribution shape ([1]; laser diffraction, monohydrochloride) |
| --- | --- | --- | --- | --- | --- | --- | --- | --- | --- | --- |
| CC(C)NC[C@@H](C(=O)N1CCN(c2ncnc3c2[C@H](C)C[C@H]3O)CC1)c1ccc(Cl)cc1 [6A′, ipatasertib monohydrochloride] | 0.7 μm | 3.8 μm | 7.5 μm | amorphous | 131 °C |  |  |  |  |  |
| CC(C)NC[C@@H](C(=O)N1CCN(c2ncnc3c2[C@H](C)C[C@H]3O)CC1)c1ccc(Cl)cc1 [6B′, ipatasertib monohydrochloride] | 0.7 μm | 5.2 μm | 10.8 μm | amorphous | 132 °C |  |  |  |  |  |
| CC(C)NC[C@@H](C(=O)N1CCN(c2ncnc3c2[C@H](C)C[C@H]3O)CC1)c1ccc(Cl)cc1 [Composition 140910416, ipatasertib monohydrochloride] | 10 μm | 27 μm | 52 μm | amorph.* |  | 1731 PA | 2.8 | 0.40 gcm^−3 | 0.55 gcm^−3 |  |
| CC(C)NC[C@@H](C(=O)N1CCN(c2ncnc3c2[C@H](C)C[C@H]3O)CC1)c1ccc(Cl)cc1 [Composition 140910417, ipatasertib monohydrochloride] | 11 μm | 27 μm | 54 μm | amorph.* |  | 1726 PA | 2.9 | 0.39 gcm^−3 | 0.55 gcm^−3 |  |
| CC(C)NC[C@@H](C(=O)N1CCN(c2ncnc3c2[C@H](C)C[C@H]3O)CC1)c1ccc(Cl)cc1 [Composition 140910418, ipatasertib monohydrochloride] | 10 μm | 26 μm | 52 μm | amorph.* |  | 1730 PA | 3.1 | 0.39 gcm^−3 | 0.55 gcm^−3 |  |
| CC(C)NC[C@@H](C(=O)N1CCN(c2ncnc3c2[C@H](C)C[C@H]3O)CC1)c1ccc(Cl)cc1 [Composition 140910419, ipatasertib monohydrochloride] | 11 μm | 33 μm | 67 μm | amorph.* |  | 1729 PA | 3.5 | 0.44 gcm^−3 | 0.58 gcm^−3 |  |
| CC(C)NC[C@@H](C(=O)N1CCN(c2ncnc3c2[C@H](C)C[C@H]3O)CC1)c1ccc(Cl)cc1 [Composition 140910420, ipatasertib monohydrochloride] | 9.7 μm | 24 μm | 47 μm | amorph.* |  | 1733 PA | 2.4 | 0.32 gcm^−3 | 0.44 gcm^−3 |  |
| CC(C)NC[C@@H](C(=O)N1CCN(c2ncnc3c2[C@H](C)C[C@H]3O)CC1)c1ccc(Cl)cc1 [Example 6C, ipatasertib monohydrochloride] | 0.7 μm | 4.3 μm |  | amorphous | 131 °C |  |  |  |  | bimodal |
